Test results reported in patent publication EP0361645B1, “Organic hydrazine derivatives for pharmaceutical use” (ROHM AND HAAS COMPANY, priority 1988, dated 1990).

How the values were obtained:
[1] = test system: intact L5D0 hornworms; experiment: Premature head capsule apolysis in intact L5D0 hornworms, injected; type: in vivo, M. sexta; conditions: for ED50: Manduca sexta, L5D0 larvae, read-out: 50% effective dose
Procedure: (§1) L4D1 means fourth instar, first day after molting. L4 animals 36 hours after ecdysis were ligated, decapitated and next day injected with varying doses of compound in 1 - 2 ul DMSO. They were scored as follows: 0 = normal L4 abdomens with no L5 crochets or spiracle apolysis; 1 = exposed dorsal vessel (response to moderate levels of molting hormone in the presence of low JH levels); 2 = L5 crochets formed but no spiracle apolysis; 3 = L5 crochets formed and mild spiracle apolysis; 4 = strong molting response, both L5 crochets and spiracle cuticle synthesized. These methods are an adaptation of the method of J. W. Truman, L. M. Riddiford, L. Safranek, 39 Dev. Biol 247 (1974). Injection and scoring of L5D3 abdomens (weighing 6.5 - 7.5 g) are also adaptations of previous methods in H. F. Nijhout, 22 J. Insect Physiol. 453 (1976). Mature feeding stage fifth instar animals weighing 8.5 - 9.5 g were ligated and decapitated, and immediately injected with Example No. 3 in 2 - 5 ul DMSO. Animals were held over moistened filter paper at 25 ° C and were scored after three days. Scoring was as follows: 0 = normal undeveloped blue-green L5D3 abdomen; 1 = light dorsal vessel exposure; 2 = dorsal vessel well-exposed with mild cuticular blanching, abdominal contraction; 3 = complete prepupal cuticle formation with strong abdominal contraction and strong cuticular blanching. For both L4 and L5 abdomens, 50% effective doses were determined by plotting the mean score for all individuals vs. dose, then determining the dose which gives a score of 2.0 and 1.5 respectively. Intact L5D0 hornworms were either allowed to feed on treated commercial black cutworm diet or injected into a proleg and scored after 48 hours. The 50% effective dose was calculated by plotting percentage of the population bearing a prematurely apolysed head capsule vs. dose. For all experiments in this table at least 5 different doses with 10 animals per dose were used.
The dosage differences between the two compounds was even more dramatic in bioassays on intact (unligated) L5D0 hornworms. […]

[2] = test system: Kr cells; experiment: Resistant Kr cell populations: response and ecdysteroid receptor activity; type: cell-based, Drosophila; conditions: for response of surviving cells (process elaboration, proliferation): four weeks in 1 X 10^-6 M 20 hydroxyecdysone or 1 X 10^-4 M Example No. 3; for ^3H-ponasterone A bound by resistant cell populations: populations reared in 1 X 10^-6 M 20-hydroxyecdysone or 1 X 10^-4 M Example No. 3, solvent controls 10.1
Procedure: Resistant Kr cell populations were reared by incubating cells at an initial density of 8 X 10^6 cells/ml with hormone or Example No. 3. The cells killed by treatment provide a feeder layer for the resistant populations. […] Ponasterone binding was assayed as described below and protein concentrations were determined using the Biorad method. This cross-resistance is compelling evidence that 20-hydroxyecdysone and Example No. 3 act through the ecdysone receptor.

[3] = test system: intact L5D0 hornworms; experiment: Premature head capsule apolysis in intact L5D0 hornworms, fed treated diet; type: in vivo, M. sexta; conditions: for ED50: L5D0 larvae, oral, read-out: 50% effective dose
Procedure: Lepidoptera display the onset of a larval molt by slippage of the head capsule down over the mandibles during formation of an underlying pharate head capsule; this morphological marker accompanies epidermal apolysis which ordinarily occurs at or near peak molting hormone titers. Example No. 3 causes a rapid, premature apolysis in newly ecdysed fifth instar day 0 (L5DO) M. sexta larvae. Clear signs of head capsule apolysis are evident 24 hours after the initiation of feeding.
as §1
The dosage differences between the two compounds was even more dramatic in bioassays on intact (unligated) L5D0 hornworms. If the compounds are injected, Example No. 3 was 67-fold as effective as 20-hydroxyecdysone, while if administered orally, it was over 670-fold as potent.
Hemolymph concentrations of 14C-Example No. 3 were measured by feeding L5D0 hornworm larvae artificial diet containing the labelled compound. At specified intervals thereafter measured volumes of hemolymph were collected, extracted and analyzed by thin layer chromatography and high performance liquid chromatography. […] Blood levels then declined rapidly, but remained at a residual level of about 3 uM for at least 36 hours thereafter.

`CC(C)(O)CC[C@@H](O)[C@](C)(O)[C@H]1CC[C@@]2(O)C3=CC(=O)[C@@H]4C[C@@H](O)[C@@H](O)C[C@]4(C)[C@H]3CC[C@]12C` [20-hydroxyecdysone, reference compound] was tested, and the ED50 [1] was 181 mg/kg, the “response of surviving cells (process elaboration, proliferation)” value [2] was “do not respond to either compound” and the “^3H-ponasterone A bound by resistant cell populations” value [2] was 1.5 femtomoles ^3H-ponasterone A per mg cytosolic protein. The ED50 ([3]; Manduca sexta) was > 2000 mg/kg and the head capsule slippage ([3]; feeding up to 2000 ppm, L5D0 hornworm larvae) was “failed to elicit head capsule slippage”.

With `CC(C)(C)N(NC(=O)c1ccccc1)C(=O)c1ccccc1` [Example No. 3, N'-t-butyl-N,N'-dibenzoylhydrazine] the ED50 [1] was 3.4 mg/kg, the “fold as effective as 20-hydroxyecdysone” value ([1]; intact L5D0 hornworms) was 67 fold and the “response of surviving cells (process elaboration, proliferation)” value [2] was “do not respond to either compound”. For the same molecule, the “^3H-ponasterone A bound by resistant cell populations” value [2] was 1.4 femtomoles ^3H-ponasterone A per mg cytosolic protein, the ED95 ([3]; Manduca sexta, po, L5D0 hornworm larvae, in artificial diet, read-out: 95% effective dose for premature molting) was ~10 mg/kg and the ED50 ([3]; Manduca sexta) was 3 mg/kg. For the same molecule, the “fold as potent as 20-hydroxyecdysone” value ([3]; intact L5D0 hornworms, administered orally) was “over 670 fold” and the “time to clear signs of head capsule apolysis” value ([3]; newly ecdysed L5D0 larvae, after the initiation of feeding) was 24 h.
